Laboratory results as given in patent US7794960B2, “Predictive biomarkers in cancer therapy” (GlaxoSmithKline LLC, priority 2004, dated 2010).

Tests used:
[1] = tested on: metastatic cancers overexpressing ErbB2 and/or expressing ErbB1; test: Clinical response (RECIST) in open-label randomized dose-cohort trial; type: in vivo, human; details: for Partial Response (PR), number of patients / Stable Disease (SD), number of patients: all subjects
Procedure: Clinical response was assessed after 8 weeks of therapy.
The Institutional Review Boards at the Sarah Cannon Cancer Center, University of North Carolina-Chapel Hill/Lineberger Comprehensive Cancer Center, Duke University Medical Center, and Case Western Reserve Medical Center approved this study.
Patients with a positive response to treatment (CR, PR or SD) continued on therapy with re-staging every 8 weeks thereafter. Patients were withdrawn from study upon evidence of disease progression or intolerable side effects.

p-ErbB2 = test: Quantitative IHC of sequential tumor biopsies (Day 0 vs Day 21): p-ErbB2; details: for pErbB2 % change: Day 21 vs Day 0
Excerpt: (§1) Patients were monitored by physical examination, clinical chemistry and hematology blood tests, and formally re-staged after 8 weeks of therapy. […] Response was classified as Complete Response (CR), Partial Response (PR), Stable Disease (SD) or Progressive Disease (PD). Patients with CR, PR or SD were considered to have a positive clinical response. Patients with Progressive Disease (PD) were considered to have a negative clinical response.
(§2) Biopsies were fixed in 10% neutral buffered formalin (NBF) and paraffin-embedded sections prepared. Hematoxylin and eosin (H&E) staining was used to confirm for the presence of tumor.
(§3) The VMSI “I-View” detection kit was used for all three of the VMSI pre-diluted primary antibodies. Erk1/2 (1:1200), and TGFalpha (1:20) were immunostained using the “BenchMark” with I-VIEW detection chemistry. Phospho-Erk1/2 (1:100) and p-Akt (1:75) were immunostained using a labeled streptavidin peroxidase technique. […] Slides were placed onto the Autostainer (Dako, Carpinteria, Calif.) and used the labeled streptavidin-biotin peroxidase method (LSAB2 kit, Dako) as the detection chemistry. After staining, ErbB1, ErbB2, Erk1/2, p-Akt, p-Erk1/2, p-ErbB1, p-ErbB2, cyclin D1, IGF-IR, and TGFalpha were counterstained manually with 4% ethyl green (Sigma-Aldrich). […] Investigators preparing and analyzing tissue sections were blinded to both patient tumor type and response to therapy.
(§4) Expression of ErbB1, ErbB2, p-ErbB1, p-ErbB2, Erk1/2, p-Erk1/2, Akt, p-Akt, TGFalpha, IGF-IR and cyclin D1 was assessed by IHC with automated image analysis using established assays; OD values were assigned to each specimen.
(§5) For purposes of this Example, “inhibition” of a biomarker refers to a decrease in the level of the biomarker, assessed by comparing the level detected in a Day 0 biopsy from a patient to the level detected in a Day 21 biopsy from the same patient.

p-Erk1/2 = test: Quantitative IHC of sequential tumor biopsies (Day 0 vs Day 21): p-Erk1/2
Excerpt: as §1, §2, §3, §4, §5

ErbB1 = test: Quantitative IHC of sequential tumor biopsies (Day 0 vs Day 21): ErbB1; details: 900 mg/day; for ErbB1 % change: Day 21 vs Day 0
Excerpt: as §1, §2, §3, §4, §5

TGFalpha = test: Quantitative IHC of sequential tumor biopsies (Day 0 vs Day 21): TGFalpha; details: 900 mg/day; for TGFa % change: Day 21 vs Day 0
Excerpt: as §1, §2, §3, §4, §5

ErbB2 = test: Quantitative IHC of sequential tumor biopsies (Day 0 vs Day 21): ErbB2; details: 900 mg/day; for ErbB2 % change: Day 21 vs Day 0
Excerpt: as §1, §2, §3, §4, §5

tumor cells = test: TUNEL assay of sequential tumor biopsies (Day 0 vs Day 21), tumor cell apoptosis; details: for TUNEL % change: Day 21 vs Day 0; for TUNEL % change / TUNEL score (percent tumor cells staining positive), Day 21: 900 mg/day
Excerpt: A commonly used method is TUNEL (Terminal deoxynucleotidyl Transferase Biotin-dUTP Nick End Labeling). One of the characteristics of apoptosis is the degradation of DNA after the activation of Ca/Mg dependent endonucleases. This DNA cleavage leads to strand breaks within the DNA. The TUNEL method identifies apoptotic cells in situ by using terminal deoxynucleotidyl transferase (TdT) to transfer biotin-dUTP to the free 3′-OH of cleaved DNA. The biotin-labeled cleavage sites are then visualized by reaction with fluorescein conjugated avidin (avidin-FITC).
as §1
TUNEL assay (Roche Diagnostics, Indianapolis, Ind.) was performed according to the manufacturer's instructions. Investigators preparing and analyzing tissue sections were blinded to both patient tumor type and response to therapy.
TUNEL scores represent the percent tumor cells staining positive.
For purposes of this Example, an “increase” in TUNEL score refers to an increased TUNEL score in the Day 21 biopsy, compared to the TUNEL score of the Day 0 biopsy from the same patient.
TUNEL staining is a quantitative measurement of DNA fragmentation characteristic of cellular apoptosis.

EGFR autophosphorylation = details: tumor cell lines that overexpress these receptors; cited from earlier work
[2] = tested on: ErbB2 autophosphorylation; details: tumor cell lines that overexpress these receptors; cited from earlier work
p-Akt = test: Quantitative IHC of sequential tumor biopsies (Day 0 vs Day 21): p-Akt; details: for pAkt % change: Day 21 vs Day 0; for p-Akt inhibition (Day 21 vs Day 0): PR
Excerpt: as §1, §2, §3, §4, §5

cyclin D1 = test: Quantitative IHC of sequential tumor biopsies (Day 0 vs Day 21): cyclin D1; details: for Cyclin D % change: Day 21 vs Day 0
Excerpt: as §1, §2, §3, §4, §5

p-ErbB1 = test: Quantitative IHC of sequential tumor biopsies (Day 0 vs Day 21): p-ErbB1; type: in vivo, human; details: for pErbB1 % change: Day 21 vs Day 0
[3] = Breast, 30 enrolled, 500-1,600 mg orally once daily
[4] = Carcinoma of Unknown Primary, 5 enrolled
[5] = breast cancer patient, 900 mg/day, Progressive Disease
[6] = refractory Inflammatory Breast Cancer patient, 900 mg/day, Partial Response
[7] = additional patient with non-inflammatory metastatic breast cancer, PR, 1200 mg/d, 21 days
[8] = first patient with IBC, PR, 650 mg/d, 21 days
[9] = patient with non-inflammatory metastatic breast cancer, PR, 900 mg/day
[10] = second patient with IBC, PR (Table 4)
[11] = patient with breast cancer, PD after 8 weeks (Table 5)
[12] = breast cancer patient, Progressive Disease
[13] = refractory Inflammatory Breast Cancer patient, Partial Response

## CS(=O)(=O)CCNCc1ccc(-c2ccc3ncnc(Nc4ccc(OCc5cccc(F)c5)c(Cl)c4)c3c2)o1 [lapatinib]
[1]; 33 patients with sequential tumor biopsies, breast cancer
  Partial responses (PR), number of patients: 4
[1]; 33 patients with sequential tumor biopsies, various malignancies
  Disease stabilization (SD), number of patients: 11
[1]; [3]
  Partial Response (PR), number of patients: 4
  Stable Disease (SD), number of patients: 10
[1]; [4]
  Partial Response (PR), number of patients: 0
  Stable Disease (SD), number of patients: 5
[1]; Colon, 7 enrolled
  Partial Response (PR), number of patients: 0
  Stable Disease (SD), number of patients: 2
[1]; Head and Neck, 5 enrolled
  Partial Response (PR), number of patients: 0
  Stable Disease (SD), number of patients: 3
[1]; Lung, 11 enrolled
  Partial Response (PR), number of patients: 0
  Stable Disease (SD), number of patients: 6
[1]; Other tumor types, 5 enrolled
  Partial Response (PR), number of patients: 0
  Stable Disease (SD), number of patients: 4
[1]; Ovarian, 4 enrolled
  Partial Response (PR), number of patients: 0
  Stable Disease (SD), number of patients: 2
[1]; Total, 67 enrolled
  Partial Response (PR), number of patients: 4
  Stable Disease (SD), number of patients: 32
[1]; dose 650 mg/day
  Number of patients with Partial Response: 1
[1]; dose 900 mg/day
  Number of patients with Partial Response: 1
[1]; dose 1200 mg/day
  Number of patients with Partial Response: 2
[1]; patients with Partial Response
  Response Duration, median: 5+ months
p-ErbB2; [5]
  pErbB2 % change: 0%
  pErbB2 (IHC OD value), Day 21: 3
p-ErbB2; [6]
  pErbB2 % change: −83%
  pErbB2 (IHC OD value), Day 21: 5
p-ErbB2; [7]
  p-ErbB2 inhibition (Day 21 vs Day 0): not associated with any appreciable inhibition
p-ErbB2; [8]
  p-ErbB2 inhibition (Day 21 vs Day 0): 72%
p-ErbB2; [9]
  p-ErbB2 change (Day 21 vs Day 0): remained unchanged
p-ErbB2; [10]
  p-ErbB2 inhibition (Day 21 vs Day 0): 83%
p-Erk1/2; [7]
  p-Erk1/2 inhibition (Day 21 vs Day 0): complete inhibition
p-Erk1/2; [11]
  p-Erk1/2 inhibition (Day 21 vs Day 0): 87%
p-Erk1/2; [9]
  p-Erk1/2 inhibition (Day 21 vs Day 0): completely inhibited
p-Erk1/2; [10]
  p-Erk1/2 inhibition (Day 21 vs Day 0): 68%
ErbB1; [12]
  ErbB1 % change: +35%
  ErbB1 (IHC OD value), Day 21: 19
ErbB1; [13]
  ErbB1 % change: −9%
  ErbB1 (IHC OD value), Day 21: 32
TGFalpha; [12]
  TGFa % change: −53%
  TGFa (IHC OD value), Day 21: 23
TGFalpha; [13]
  TGFa % change: −61%
  TGFa (IHC OD value), Day 21: 21
ErbB2; [12]
  ErbB2 % change: −27%
  ErbB2 (IHC OD value), Day 21: 32
ErbB2; [13]
  ErbB2 % change: −7%
  ErbB2 (IHC OD value), Day 21: 65
Tumor cells; [12]
  TUNEL % change: 0%
  TUNEL score (percent tumor cells staining positive), Day 21: 0
Tumor cells; [13]
  TUNEL % change: +2400%
  TUNEL score (percent tumor cells staining positive), Day 21: 72
Tumor cells; all four patients achieving Partial Response
  Percentage of tumor cells stained positive by TUNEL, Day 21 vs Day 0: markedly increased
Tumor cells; patient with ErbB1-overexpressing head and neck carcinoma, tumor regression after 8 weeks not qualifying as PR
  TUNEL score, Day 21 vs Day 0: increased
Tumor cells; [11]
  TUNEL score, Day 21 vs Day 0: did not show an increase
Tumor cells; patients with PD at 8 weeks
  TUNEL score, Day 21 vs Day 0: did not increase
EGFR autophosphorylation
  EGFR autophosphorylation: inhibits
[2]
  ErbB2 autophosphorylation: inhibits
p-Akt; [5]
  pAkt % change: −8%
  pAkt (IHC OD value), Day 21: 33
p-Akt; [6]
  pAkt % change: −0%
  pAkt (IHC OD value), Day 21: 20
p-Akt; additional patient with non-inflammatory metastatic breast cancer, 1200 mg/d, 21 days
  p-Akt inhibition (Day 21 vs Day 0): 34%
p-Akt; first patient with IBC, 650 mg/d, 21 days
  p-Akt inhibition (Day 21 vs Day 0): 90%
p-Akt; [11]
  p-Akt change (Day 21 vs Day 0): essential unchanged
p-Akt; patient with non-inflammatory metastatic breast cancer, 900 mg/day
  p-Akt inhibition (Day 21 vs Day 0): 44%
p-Akt; [10]
  p-Akt change (Day 21 vs Day 0): essentially unchanged
Cyclin D1; [5]
  Cyclin D % change: −76%
  Cyclin D (IHC OD value), Day 21: 10
Cyclin D1; [6]
  Cyclin D % change: −57%
  Cyclin D (IHC OD value), Day 21: 12
Cyclin D1; [7]
  cyclin D inhibition (Day 21 vs Day 0): 90%
Cyclin D1; [8]
  cyclin D1 inhibition (Day 21 vs Day 0): 49%
Cyclin D1; [11]
  cyclin D1 inhibition (Day 21 vs Day 0): 76%
Cyclin D1; [9]
  cyclin D1 inhibition (Day 21 vs Day 0): 90%
Cyclin D1; [10]
  cyclin D1 inhibition (Day 21 vs Day 0): 57%
p-ErbB1; [5]
  pErbB1 % change: −81%
  pErbB1 (IHC OD value), Day 21: 3
p-ErbB1; [6]
  pErbB1 % change: −80%
  pErbB1 (IHC OD value), Day 21: 1
p-ErbB1; [7]
  p-ErbB1 inhibition (Day 21 vs Day 0): not associated with any appreciable inhibition
p-ErbB1; [11]
  p-ErbB1 inhibition (Day 21 vs Day 0): 81%
p-ErbB1; [9]
  p-ErbB1 inhibition (Day 21 vs Day 0): 31%
p-ErbB1; [10]
  p-ErbB1 inhibition (Day 21 vs Day 0): 80%
